Measurements published in patent US20200270588A1, “GLUCOSYL TRANSFERASE POLYPEPTIDES AND METHODS OF USE” (Syngenta Participations AG, priority 2017, published 2020).
Where “and” joins values, the source holds several entries; their conditions need not be identical. Equal entries are not always repeated.

Tests used:
Assay in all cases: UDP-Glo glucosyl transferase assay, purified enzyme
Assay type in all cases: biochemical
[1] = molecular target: T1, Zea mays bx9 glucosyl transferase (C-terminally his tagged SEQ ID NO: 1) (Zea mays, UniProt B4G072)
T1 construct: His tag (C); made in house; host or cells: E. coli BL21 (DE3), pET24a
T1 sequence (B4G072 1-462): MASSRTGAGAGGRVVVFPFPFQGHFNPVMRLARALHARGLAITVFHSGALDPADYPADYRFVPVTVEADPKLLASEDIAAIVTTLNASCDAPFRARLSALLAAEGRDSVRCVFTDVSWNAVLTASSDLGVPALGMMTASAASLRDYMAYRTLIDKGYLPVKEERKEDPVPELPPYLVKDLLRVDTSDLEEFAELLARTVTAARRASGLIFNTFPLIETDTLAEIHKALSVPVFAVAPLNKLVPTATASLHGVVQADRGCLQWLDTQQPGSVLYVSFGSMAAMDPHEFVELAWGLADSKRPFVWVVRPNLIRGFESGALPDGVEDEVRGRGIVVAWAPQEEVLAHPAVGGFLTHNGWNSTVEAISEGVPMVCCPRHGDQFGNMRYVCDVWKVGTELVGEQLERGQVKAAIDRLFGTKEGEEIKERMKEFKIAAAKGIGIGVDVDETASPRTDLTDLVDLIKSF
Procedure: (§1) Glucosyl transferase activity is assayed via measurement of acceptor substrate-dependent production of UDP from ultrapure UDP-glucose using the Promega UDP-Glo™ method and according to the manufacturer's instructions. Assays are run in 96 well microtiter plates.
(§2) Enzyme, typically at a stock concentration of ˜2 mg/ml is diluted to an appropriate concentration in 50 mM K^+ Hepes buffer at pH7.5 containing 0.5 mg/mL bovine serum albumin (BSA) and 5 ul aliquots of this diluted enzyme added to each well of a Perkin Elmer white ½ area 96 well plate. […] Assays are run for an appropriate time (usually 10 to 60 min) so that the amount of UDP formed lies within the most nearly linear part of the UDP standard curve and are stopped with the addition and mixing of 25 ul UDP-Glo™ detection reagent (prepared as described below). Plates are then incubated at room temperature for 60 minutes and then read in a luminescence plate reader (Perkin Elmer Envision 2130 Multilabel Reader). A UDP standard curve is run alongside each set of assays and reagent blank control assays run with DMSO in place of test herbicide. Typically, 300 pmol of UDP corresponds to a Relative Luminescence Unit (RLU) reading of about 1.5E7 and the response curve between 0 and 600 pmol is fitted to a polynomial function (see for example FIG. 2).
The UDP-Glo™ reagents are made up and used according to the manufacturer's instructions. Thus, Nucleotide Detection Buffer and ATP are combined to make nucleotide detection reagent (NDR) dispensed into aliquots and frozen to be freshly thawed before use.
Km and kcat values in respect of UDP-glucose are derived by carrying out experiments to measure initial rates over a suitable range of concentrations of UDP glucose out at a fixed near saturating concentration of acceptor substrate. Best fit values of kcat, Km and kcat/Km are obtained by direct fitting of the data to the Michaelis-Menten equation using Graphpad Prism™ software.

[2] = molecular target: T2, SEQ ID NO 19, mutant of Zea mays bx9 glucosyl transferase (Zea mays, UniProt B4G072, A281K/A334K/L194V/M279F/S117V); details: herbicide mM: V 0.300, VI 0.250, VII 0.210; IV, VIII, XI, XXI, XX, XVIII, XVI, XV, XIV 0.200; others 1.000
T2 construct: His tag (C); made in house
Procedure: as §1, §2
(§3) The UDP-Glo™ reagents are made up and used according to the manufacturer's instructions. Thus, Nucleotide Detection Buffer and ATP are combined to make nucleotide detection reagent (NDR) dispensed into aliquots and frozen to be freshly thawed before use. […]
(§4) Table 13 summarizes the results obtained from assays, run as described in Example 1, using a variety of alcohol and aminal PSII herbicides as substrates of the Zea mays bx9 w/t (i.e. C-terminally his tagged SEQ ID no 1) and various mutants of the same, selected from SEQ ID NO: 16-30). All of these proteins were C-terminally his-tagged, expressed and purified as described in Example 1. Assays were run and analyzed as described in example 1. It is seen that various of the mutations herein and combinations thereof led to significant improvements (over the w/t bx9 protein) in catalytic activity versus various of the herbicides and that these improvements are often of sufficient magnitude to be useful for conferring improved herbicide tolerance upon crop. This is especially the case given that even the unmutated w/t bx9 enzyme which has only modest glucosyl transferase activity (for example against compounds V and VI) was nevertheless adequately active to confer significant herbicide tolerance in the glass house (as shown in example 9) even without mutational improvement. It is also seen that particular mutations can lead to very much improved activity in respect of some chemistries but not to others but that, overall, there is at least one variant within the scope of the current invention that provides significant and useful improvement in tolerance to each of the chemistries tested.

[3] = molecular target: T3, SEQ ID NO 23, mutant of Zea mays bx9 glucosyl transferase (Zea mays, UniProt B4G072, A334K/F21Y/L194C/M279F/S117V); details: lower block, concentration printed only in upper block: V 0.300, VII 0.210; IV, VIII, XI, XXI, XX, XVIII, XVI, XV, XIV 0.200; others 1.000 mM
T3 construct: His tag (C); made in house
Procedure: as §1, §2, §3, §4

[4] = molecular target: T4, SEQ ID NO 18, mutant of Zea mays bx9 glucosyl transferase (Zea mays, UniProt B4G072, A281K/A334K/F21Y/M279F/S117V); details: herbicide mM: V 0.300, VI 0.250, VII 0.210; IV, VIII, XI, XXI, XX, XVIII, XVI, XV, XIV 0.200; others 1.000
T4 construct: His tag (C); made in house
Procedure: as §1, §2, §3, §4

[5] = molecular target: T5, SEQ ID NO 17, zmBX9 S117V, M279F, A334K mutant (Zea mays, UniProt B4G072, A334K/M279F/S117V); details: herbicide mM: V 0.300, VI 0.250, VII 0.210; IV, VIII, XI, XXI, XX, XVIII, XVI, XV, XIV 0.200; others 1.000
T5 construct: polypeptides were the C-terminally his-tagged; His tag (C); made in house

[6] = molecular target: T6, SEQ ID NO 22, mutant of Zea mays bx9 glucosyl transferase (Zea mays, UniProt B4G072, A334K/F21Y/M279F/S117V/T220P); details: lower block, concentration printed only in upper block: V 0.300, VII 0.210; IV, VIII, XI, XXI, XX, XVIII, XVI, XV, XIV 0.200; others 1.000 mM
T6 construct: His tag (C); made in house

[7] = molecular target: T7, SEQ ID NO 21, mutant of Zea mays bx9 glucosyl transferase (Zea mays, UniProt B4G072, A334K/F21Y/L194V/M279F/S117V); details: lower block, concentration printed only in upper block: V 0.300, VII 0.210; IV, VIII, XI, XXI, XX, XVIII, XVI, XV, XIV 0.200; others 1.000 mM
T7 construct: His tag (C); made in house

[8] = herbicide 0.500 mM, limit of detection about 0.001
[9] = herbicide mM: V 0.300, VI 0.250, VII 0.210, IV, VIII, XI, XXI, XX, XVIII, XVI, XV, XIV 0.200, others 1.000
[10] = 0.5 mM UDP-glucose, 25 C, pH 7.5, DMSO reagent blank as control
[11] = control = inactive H24A mutant of bx9 (asterisk)

For `CN1CC(O)N(c2cc(C(F)(F)F)c(Cl)cn2)C1=O` (centres unmarked) [XI], the Activity [1, 8] was 0.000 pmol/sec/pmol enzyme, the Activity [1, 9] was 0.000 pmol/sec/pmol enzyme and the Activity [2] was 0.898 pmol/sec/pmol enzyme. It also gave an Activity [3] of 0.227 pmol/sec/pmol enzyme, an Activity [4] of 0.710 pmol/sec/pmol enzyme and an Activity [5] of 0.120 pmol/sec/pmol enzyme. The Activity [6] was 0.548 pmol/sec/pmol enzyme and the Activity [7] was 0.374 pmol/sec/pmol enzyme.
With `CON1C(=O)N(c2cc(C(F)(F)F)ccn2)C(O)[C@@H]1C` (some centres unmarked) [Compound VI] the kcat [1, 10] was 0.037 s⁻¹ and 0.044 s⁻¹, the kcat [1, 11] was 0.0430 s⁻¹ and the Activity [1, 8] was 0.013 pmol/sec/pmol enzyme. It also gave an Activity [1, 9] of 0.012 pmol/sec/pmol enzyme and an Activity [5] of 1.003 pmol/sec/pmol enzyme.
`CN1CC(O)N(c2cc(C(F)(F)F)ccn2)C1=O` (centres unmarked) [Compound V] was tested, and the kcat [1, 10] was 0.012 s⁻¹ and 0.021 s⁻¹, the kcat [1, 11] was 0.0181 s⁻¹ and the Activity [1, 8] was 0.005 pmol/sec/pmol enzyme. The Activity [1, 9] was 0.005 pmol/sec/pmol enzyme, the Activity [2] was 1.651 pmol/sec/pmol enzyme and the Activity [3] was 1.246 pmol/sec/pmol enzyme. For the same molecule, the Activity [4] was 1.582 pmol/sec/pmol enzyme, the Activity [5] was 0.565 pmol/sec/pmol enzyme and the Activity [6] was 1.221 pmol/sec/pmol enzyme. For the same molecule, the Activity [7] was 1.548 pmol/sec/pmol enzyme.
For `Cc1cnc(N2C(=O)N(C)CC2O)cc1C(F)(F)F` (centres unmarked) [XVIII], the kcat [1, 10] was 0.0040 s⁻¹, the Activity [1, 8] was 0.002 pmol/sec/pmol enzyme and the Activity [1, 9] was 0.001 pmol/sec/pmol enzyme. For the same molecule, the Activity [2] was 0.964 pmol/sec/pmol enzyme, the Activity [3] was 0.253 pmol/sec/pmol enzyme and the Activity [4] was 0.898 pmol/sec/pmol enzyme. For the same molecule, the Activity [5] was 0.231 pmol/sec/pmol enzyme, the Activity [6] was 0.933 pmol/sec/pmol enzyme and the Activity [7] was 0.425 pmol/sec/pmol enzyme.
